Experimental data published in US20230183207A1 (priority 2020, published 2023).

Tests used:
SARS-CoV-2 = format: cell-based
[1] = system: Vero-E6 and TMPRSS2-over-expressing Vero-E6 cells

| SMILES | block of cytopathic effect of SARS-CoV-2 (FIG. 2) (SARS-CoV-2) | toxicity [1] |
| --- | --- | --- |
| C=CCn1ccc2c(C(=O)Oc3cncc(Cl)c3)cccc21 [GRL-0820S] | significantly block the cytopathic effect |  |
| O=C(Oc1cncc(Cl)c1)c1cccc2[nH]ccc12 [GRL-0920S] | significantly block the cytopathic effect | without significant toxicity |
